Here are results for one molecule from patent publication US20210015793A1, “COMPOUNDS FOR TREATING CNS- AND NEURODEGENERATIVE DISEASES” (ETH ZURICH, priority 2018, published 2021).

The nature of data set [1]: Serum concentration by HPLC in dogs after oral dosing. The note with it: dogs. The format is in vivo, dog. The procedure: (§1) Dog serum concentrations of Compound-1, Compound-1F and Compound-4 were determined with serum isolated from the blood of German shepherd dogs (age: 8-9 months) taken at different time points (2 h, 4 h, 6 h, 8, 10 h, 24 h) after oral drug intake. The steady-state serum concentrations of Compound-1, Compound-1F and Compound-4 were determined in mice with blood isolated at the end of the study by cardiac puncture. Serum proteins were removed by acetonitrile precipitation, and compounds were extracted by chloroform before separation on an HPLC-C18 column (Poroshell 120 EC-C18, Agilent) with an HPLC system (Agilent 1100 Series) and detection at OD 280 nm, for Compound-1 and Compound-1F. Detection of Compound-4 was performed at OD 310 nm. The same extraction method was also used to determine Compound-1F in the serum of healthy human research participants. Dog hematology and biochemical parameters were determined by the Center of Applied Analytical and Veterinary Studies, Cairo, Egypt. ECG and blood pressure were measured by Dr. Mohamed Elsaed, Electrocardiography Unit, Faculty of Veterinary Medicine, Cairo University. The study was approved by the ethical committee of the Center of Applied and Veterinary Studies, Cairo, Egypt. Clinical laboratory parameters of human research participants were determined by the Rabaa El Adaweya Medical Central Hospital, Cairo, Egypt.

Data set [2] is described as follows: 28-day repeated oral dosing safety in German shepherd dogs. The format is in vivo, dog. The settings on record: dogs. The procedure: as §1
Setting [3] is: repeated oral dosing 28 days, 200 mg daily.

Turning to `c1cc(-c2ccc3c(c2)OCO3)ncn1` [Compound-4, 4-(1,3-benzodioxol-5-yl)pyrimidine], the “dose dependence of peak serum levels at 2 h after drug intake” value in data set [1] (doses of 120 mg, 200 mg and 300 mg, 28 days) is “dose-dependent increase”. Moreover, the oral bioavailability result in data set [1] (oral treatment) was “good oral bioavailability”. Besides, in data set [1] (setting [3]), the “serum concentration at t=8 h after intake” value was “undetectable” and the “time to peak serum level after drug intake” value was found to be 2 h. The peak serum concentration in data set [1] (repeated oral dosing 28 days, daily dose of 200 mg) came out at 0.56 ± 0.10 µg/mL. Further, in data set [2] (28 days), the “blood pressure and heart rate before vs after drug intake” value is recorded as “not different”. In addition, in data set [2] (28 days at 120, 200 and 300 mg per day), the clinical laboratory parameters entry is recorded as “within the normal range”. The tolerability result in data set [2] (therapeutic dose range) is “excellent tolerability”.
